Data taken from patent US7053041B1, “Methods and compositions useful for inhibition of αvβ5mediated angiogenesis” (The Scripps Research Institute, priority 1996, dated 2006).

How the values were obtained:
Format in all cases: in vivo
[1] = test system: bFGF-induced angiogenesis; assay: chick CAM assay, bFGF-induced angiogenesis, intravenous inhibitors
Experimental: (§1) Ten day old chick embryos were obtained from McIntyre Poultry (Lakeside, Calif.) and incubated at 37C with 60% humidity. A small hole was made through the shell at the end of the egg directly over the air sac with the use of a small crafts drill (Dremel, Division of Emerson Electric Co., Racine, Wis.). A second hole was drilled on the broad side of the egg in a region devoid of embryonic blood vessels determined previously by candling the egg. […] A 1.0 centimeter (cm)×1.0 cm square window was cut through the shell over the dropped CAM with the use of a small model grinding wheel (Dremel). The small window allowed direct access to the underlying CAM.
(§2) Angiogenesis was induced by placing a 5 millimeter (mm)×5 mm Whatman filter disk (Whatman Filter paper No. 1) saturated with Hanks Balanced Salt Solution (HBSS, GIBCO, Grand Island, N.Y.) or HBSS containing preselected cytokines at a preselected concentration, i.e. one to test the effect on angiogenesis, on the CAM of a 10 day chick embryo in a region devoid of blood vessels and the windows were later sealed with tape. Angiogenesis was monitored by photomicroscopy after 72 hours. CAMs were snap frozen then 6 μm cryostat sections were fixed with acetone and stained by immunofluorescence as described in Example 2B and 2C with 10 μg/ml of selected anti-integrin antibodies, including those directed against αvβ5 as described in Example 1.
(§3) Angiogenesis was first induced on 10 day old chick embryos by application of growth factor-saturated filter disks. Specifically, in the first assays, angiogenesis was induced by exposure to either bFGF or VEGF, each at a concentration of 150 ng/ml.
(§4) For application of growth factors, during the candling procedures, prominent blood vessels were selected and marks were made on the egg shell to indicate their positions. The holes were drilled in the shell, the CAMs were dropped and growth factor-saturated filter papers were then separately placed on the CAMs as described above. The windows were sealed with sterile tape and the embryos were replaced in the incubator.
(§5) Twenty four hours later, a second small window was carefully cut on the lateral side of the egg shell directly over prominent blood vessels selected previously. The outer egg shell was carefully removed leaving the embryonic membranes intact. The shell membrane was made transparent with a small drop of mineral oil (Perkin-Elmer Corp, Norwalk, Conn.) which allowed the blood vessels to be visualized easily. Then, phosphate buffered saline (PBS), 75 μg of purified sterile anti-integrin antibodies or 75 μg of synthetic peptides (cyclic peptide RGDfV, SEQ ID NO 4 and control cyclic peptide RADfV, SEQ ID NO 5) in PBS were injected into blood vessels apparent on the growth factor-induced CAMs. The windows were sealed with tape and the embryos were allowed to incubate until 72 hours.
The filter discs and representative surrounding CAM tissues were photographed in a stereomicroscope (FIGS. 3A–3F and FIGS. 5A–5F) and the mean angiogenic index +/− the standard error was determined for 12 CAMs per condition (FIGS. 4A–4B and FIGS. 6A–6B). Angiogenesis was scored for each embryo in a double blind manner by analyzing the number and extent of branching of blood vessels within the area of each disc. The scores ranged from 1 (low) to 4 (high) and the angiogenesis index was determined by subtracting a background of 1 from all data. […]

[2] = test system: VEGF-induced angiogenesis; assay: chick CAM assay, VEGF-induced angiogenesis, intravenous inhibitors
Experimental: as §1, §2, §3, §4, §5
The filter discs and representative surrounding CAM tissues were photographed in a stereomicroscope (FIGS. 3A–3F and FIGS. 5A–5F) and the mean angiogenic index +/− the standard error was determined for 12 CAMs per condition (FIGS. 4A–4B and FIGS. 6A–6B). Angiogenesis was scored for each embryo in a double blind manner by analyzing the number and extent of branching of blood vessels within the area of each disc. The scores ranged from 1 (low) to 4 (high) and the angiogenesis index was determined by subtracting a background of 1 from all data.
In a further assay performed in the CAM model having VEGF-induced angiogenesis, 2 μg of peptides 85189 (SEQ ID NO 9) and the inert salt counterpart 121974 were separately intravenously injected as previously described. The effect of the peptides was assessed in comparison to that of control peptide 69601 (SEQ ID NO 5) and to untreated (labeled as NT) preparations.
The effect of the peptides of VEGF-induced angiogenesis is measured through a determination of the number of blood vessel branch points. […]

[3] = test system: TNF-α mediated angiogenesis; assay: chick CAM assay, TNF-α-induced angiogenesis; details: TNF-α 1.0 μg/ml; antibodies 75 μg per embryo, calphostin C 100 nM
Experimental: (§6) The above growth factors (cytokines), including bFGF and VEGF, were separately applied at a concentration of 1.0 μg/ml to the 10 day old CAM model as previously described. PMA was used at a concentration of 20 ng/ml.
(§7) After 24 hours after growth factor treatment, the antibodies, LM609 and P1F6, or the protein kinase C (PKC) inhibitor, calphostin C, were separately provided to the CAM model, either by a single intravascular dose as described above or by topical administration as described below in the next example. For intravascular injections over the next 3 day consecutive period, the antibodies were used at a concentration of 75 μg per embryo and the calphostin C was at a dosage of 100 nM.
(§8) On day 13, filter discs and associated CAM tissue were dissected and analyzed for angiogenesis with a stereo microscope. Angiogenesis was scored in a double blind manner by analyzing the number and extent of branching of the blood vessels within the area of the discs. The scores ranged from low (1) to high (4). The angiogenesis index was determined by subtracting a background score of 1 from all data. Experiments were repeated 2–4 times with 5–6 embryos per condition.

[4] = test system: angiogenesis induced by TGF-α; assay: chick CAM assay, TGF-α-induced angiogenesis; details: TGF-α 1.0 μg/ml; antibodies 75 μg per embryo, calphostin C 100 nM
Experimental: as §6, §7, §8

[5] = test system: angiogenesis induced by PMA; assay: chick CAM assay, PMA-induced angiogenesis; details: PMA 20 ng/ml; antibodies 75 μg per embryo, calphostin C 100 nM
Experimental: as §6, §7, §8

[6] = test system: retinal vasculogenesis; assay: newborn mouse model of retinal angiogenesis
Experimental: For the model, newborn mice were injected subcutaneously twice daily for four days starting from day 0 with the cyclic peptide RGDfV (SEQ ID NO 4) (also referred to as peptide 203) or the control peptide RADfV (SEQ ID NO 5). On postnatal day five, globes were removed and fixed in 4.0% paraformaldehyde (PFA) at room temperature.
To quantitate mouse retinal angiogenesis, the distance from the optic nerve head to the most distal point of a single vessel selected in each of six equal sectors around a twelve hour clock was measured. The mean distance was calculated and averaged with similar data obtained from an entire litter. To measure the total volume of retinal blood vessels, the entire specimen was scanned in 2.0 μm optical sections and stored digitally. The “seed” function in Bio-Rad's Lasersharp software was then used to threshold and count cubic pixels in each section. A macro was written to sum the volume of all sections and determine the value for all vascular structures.

Substance	effect on CAM angiogenesis in response to bFGF (angiogenesis index) ([1]; bFGF 1.0 μg/ml, antibodies 75 μg per embryo, calphostin C 100 nM)	effect on CAM angiogenesis induced by VEGF (angiogenesis index) ([2]; VEGF 1.0 μg/ml, antibodies 75 μg per embryo, calphostin C 100 nM)	effect on CAM angiogenesis in response to TNF-α (angiogenesis index) [3]	effect on CAM angiogenesis induced by TGF-α (angiogenesis index) [4]	effect on CAM angiogenesis induced by PMA (angiogenesis index) [5]	inhibition of bFGF-induced CAM angiogenesis ([1]; bFGF 150 ng/ml, 75 μg antibody or peptide intravenously, 72 hours)	inhibition of VEGF-induced CAM angiogenesis ([2]; VEGF 150 ng/ml, 75 μg antibody or peptide intravenously, 72 hours)	volume of retinal blood vessels compared with untreated newborn mice ([6]; five-day old treated animals)	inhibition of retinal vasculogenesis compared to untreated counterparts ([6]; newborn mice, s.c. twice daily for four days) [%]	mean volume of retinal vessels ([6]; postnatal day five)	inhibition of retinal vasculogenesis relative to control peptide (vessel growth in two dimensions) ([6]; s.c. twice daily for four days from day 0, postnatal day five, N=9) [%]	reduction in retinal vascular volume compared to controls ([6]; three dimensional analysis, postnatal day five) [%]	difference in vessel growth between untreated newborn mice and treated five-day old mice ([6]; two dimensions)
calphostin C [reference compound]	minimal effects	blocked angiogenesis	minimal effects	blocked angiogenesis	blocked angiogenesis	–	–	–	–	–	–	–	–
cyclo(Arg-Gly-Asp-D-Phe-Val) [compound 66203]	–	–	–	–	–	abolished angiogenesis	abolished angiogenesis	indistinguishable	~100	3.6×10^6 μm^3	44	78	No statistical difference
